Data: patent US12486240B2, “Oxadiazole compounds for controlling or preventing phytopathogenic fungi” (PI INDUSTRIES LTD., priority 2019, dated 2025)

Each compound was assayed on Phakopsora pachyrhizi (assay: Phakopsora pachyrhizi test on soybean (preventive spray)). Conditions: preventive spray on soybean plants, inoculated one day after treatment, rated 3, 7, 10 and 15 days after application, read-out: Efficacy (% control) from disease severity rating versus untreated control.
Type: in vivo
Protocol: Example 5: Phakopsora pachyrhizi Test on Soybean Compounds were dissolved in 2% dimethyl sulfoxide/acetone and then mixed with water containing an emulsifier to a calibrated spray volume of 50 mL. This 50 mL spray solution was poured into spray bottles for further applications. To test the preventive activity of compounds, healthy young Soybean plants raised in the greenhouse were sprayed with the active compound preparation at the stated application rates inside the spray cabinets using hollow cone nozzles. One day after treatment, the plants were inoculated with a spore suspension containing 2×10^5 Phakopsora pachyrhizi conidia. The inoculated plants were then kept in a greenhouse chamber at 22-24° C. temperature and 80-90% relative humidity for disease expression. A visual assessment of the compound's performance was carried out by rating the disease severity (0-100% scale) on treated plants 3, 7, 10 and 15 days after application. Efficacy (% control) of the compounds was calculated by comparing the disease rating in the treatment with the one of the untreated control. The sprayed plants were also assessed for plant compatibility by recording symptoms like necrosis, chlorosis and stunting.
Work on `CN(Cc1ccccc1)c1c(Nc2ccc(-c3noc(C(F)(F)F)n3)cc2)c(=O)c1=O` [Compound 1, 3-(benzyl(methyl)amino)-4-((4-(5-(trifluoromethyl)-1,2,4-oxadiazol-3-yl)phenyl)amino)cyclobut-3-ene-1,2-dione] yielded a pest or weed control at 500 ppm of no less than 70%. `COc1c(Nc2ccc(-c3noc(C(F)(F)F)n3)cc2)c(=O)c1=O` [Compound 2, 3-methoxy-4((4-(5-(trifluoromethyl)-1,2,4-oxadiazol-3-yl)phenyl)amino)cyclobut-3-ene-1,2-dione] was tested, and the pest or weed control at 500 ppm was no less than 70%. `O=c1c(Nc2ccc(-c3noc(C(F)(F)F)n3)cc2)c(N2CCOCC2)c1=O` [Compound 4, 3-morpholino-4((4-(5-(trifluoromethyl)-1,2,4-oxadiazol-3-yl)phenyl)amino)cyclobut-3-ene-1,2-dione] showed a pest or weed control at 500 ppm of no less than 70%. Work on `COC1CCN(c2c(Nc3ccc(-c4noc(C(F)(F)F)n4)cc3)c(=O)c2=O)C1` (stereo not shown) [Compound 5, 3-(3-methoxypyrrolidin-1-yl)-4-((4-(5-(trifluoromethyl)-1,2,4-oxadiazol-3-yl)phenyl)amino)cyclobut-3-ene-1,2-dione] yielded a pest or weed control at 500 ppm of no less than 70%. Compound `CCOC1CN(c2c(Nc3ccc(-c4noc(C(F)(F)F)n4)cc3)c(=O)c2=O)C1` [Compound 6, 3-(3-ethoxyazetidin-1-yl)-4-((4-(5-(trifluoromethyl)-1,2,4-oxadiazol-3-yl)phenyl)amino)cyclobut-3-ene-1,2-dione] has a pest or weed control at 500 ppm of no less than 70%. With `O=c1c(Nc2ccc(-c3noc(C(F)(F)F)n3)cc2)c(N2CCC2)c1=O` [Compound 9, 3-(azetidin-1-yl)-4-((4-(5-(trifluoromethyl)-1,2,4-oxadiazol-3-yl)phenyl)amino)cyclobut-3-ene-1,2-dione] the pest or weed control at 500 ppm was no less than 70%. For `CN(Cc1cc(F)cc(F)c1)c1c(Nc2ccc(-c3noc(C(F)(F)F)n3)cc2)c(=O)c1=O` [Compound 10, 3((3,5-difluorobenzyl)(methyl)amino)-4-((4-(5-(trifluoromethyl)-1,2,4-oxadiazol-3-yl)phenyl)amino)cyclobut-3-ene-1,2-dione], the pest or weed control at 500 ppm was no less than 70%. `CCCN(C)c1c(Nc2ccc(-c3noc(C(F)(F)F)n3)cc2)c(=O)c1=O` [Compound 11, 3-(methyl(propyl)amino)-4-((4-(5-(trifluoromethyl)-1,2,4-oxadiazol-3-yl)phenyl)amino)cyclobut-3-ene-1,2-dione] gave a pest or weed control at 500 ppm of no less than 70%. `CN(C)c1c(Nc2ccc(-c3noc(C(F)(F)F)n3)cc2)c(=O)c1=O` [Compound 12, 3-(dimethylamino)-4-((4-(5-(trifluoromethyl)-1,2,4-oxadiazol-3-yl)phenyl)amino)cyclobut-3-ene-1,2-dione] showed a pest or weed control at 500 ppm of no less than 70%. For `O=C1CN(c2c(Nc3ccc(-c4noc(C(F)(F)F)n4)cc3)c(=O)c2=O)CCN1` [Compound 13, 3-(3-oxopiperazin-1-yl)-4-((4-(5-(trifluoromethyl)-1,2,4-oxadiazol-3-yl)phenyl)amino)cyclobut-3-ene-1,2-dione], the pest or weed control at 500 ppm was no less than 70%. `C=CCN(C)c1c(Nc2ccc(-c3noc(C(F)(F)F)n3)cc2)c(=O)c1=O` [Compound 14, 3-(allyl(methyl)amino)-4-((4-(5-(trifluoromethyl)-1,2,4-oxadiazol-3-yl)phenyl)amino)cyclobut-3-ene-1,2-dione] gave a pest or weed control at 500 ppm of no less than 70%. For `N#CC1CCN(c2c(Nc3ccc(-c4noc(C(F)(F)F)n4)cc3)c(=O)c2=O)C1` (stereo not shown) [Compound 15, 1-(3,4-dioxo-2-((4-(5-(trifluoromethyl)-1,2,4-oxadiazol-3-yl)phenyl)amino)cyclobut-1-en-1-yl)pyrrolidine-3-carbonitrile], the pest or weed control at 500 ppm was no less than 70%. For `CN1CCN(c2c(Nc3ccc(-c4noc(C(F)(F)F)n4)cc3)c(=O)c2=O)CC1` [Compound 16, 3-(4-methylpiperazin-1-yl)-4-((4-(5-(trifluoromethyl)-1,2,4-oxadiazol-3-yl)phenyl)amino)cyclobut-3-ene-1,2-dione], the pest or weed control at 500 ppm was no less than 70%.
